Consider twelve compounds from patent US20090029981A1, “SUBSTITUTED 4-PHENYLPIPERIDINES” (priority 2006, published 2009).

In this experiment the target is T1, renin (Homo sapiens, UniProt P00797).
T1 construct: This test measures the formation of angiotensin I in human plasma; from tissue; host or cells: human plasma
T1 sequence (P00797 67-406): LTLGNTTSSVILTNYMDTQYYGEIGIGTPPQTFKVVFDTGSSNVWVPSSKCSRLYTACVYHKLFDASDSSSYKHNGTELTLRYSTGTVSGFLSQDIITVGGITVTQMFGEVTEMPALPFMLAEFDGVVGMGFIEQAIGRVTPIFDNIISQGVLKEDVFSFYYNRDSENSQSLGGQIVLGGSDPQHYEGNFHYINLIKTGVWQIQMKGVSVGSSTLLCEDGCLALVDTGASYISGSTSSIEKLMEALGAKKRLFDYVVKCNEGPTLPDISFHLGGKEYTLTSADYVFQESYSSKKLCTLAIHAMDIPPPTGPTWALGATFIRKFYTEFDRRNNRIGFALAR
The experiment in a line: Formation of angiotensin I in human plasma (in vitro test of Nussberger et al.), radio-immunoassay. In kind it is biochemical. Particulars: one range stated for the listed examples together, about, read-out: IC50, concentration of the inhibitor which reduces the formation of angiotensin I by 50%. From the text: The compounds of the formula (I) or (IA), and their pharmaceutically acceptable salts have an inhibitory effect on the natural enzyme renin. The latter passes from the kidneys into the blood and there brings about the cleavage of angiotensinogen to form the decapeptide angiotensin I which is then cleaved in the lung, the kidneys and other organs to the octa-peptide angiotensin II. Angiotensin II raises the blood pressure both directly by arterial constriction, and indirectly by releasing the hormone aldosterone, which retains sodium ions, from the adrenals, which is associated with an increase in the extracellular fluid volume. This increase is attributable to the effect of angiotensin II itself or of the heptapeptide angiotensin III formed therefrom as cleavage product. Inhibitors of the enzymatic activity of renin bring about a reduction in the formation of angiotensin I and, as a consequence thereof, the formation of a smaller amount of angiotensin II. The reduced concentration of this active peptide hormone is the direct cause of the blood pressure-lowering effect of renin inhibitors.
The effect of renin inhibitors is detected inter alia experimentally by means of in vitro tests where the reduction in the formation of angiotensin I is measured in various systems (human plasma, purified human renin together with synthetic or natural renin substrate). The following in vitro test of Nussberger et al. (1987) J. Cardiovascular Pharmacol., Vol. 9, pp. 39-44, is used inter alia. This test measures the formation of angiotensin I in human plasma. The amount of angiotensin I formed is determined in a subsequent radio-immunoassay. The effect of inhibitors on the formation of angiotensin I is tested in this system by adding various concentrations of these substances. The IC50 is defined as the concentration of the particular inhibitor which reduces the formation of angiotensin I by 50%. The compounds of the present invention show inhibitory effects in the in vitro systems at minimal concentrations of about 10^−6 to about 10^−10 mol/l.
Consider `C#CCO[C@@H]1CNC[C@H](OCc2ccc3c(c2)N(CCCOC)CCO3)C1c1ccc(OC)cc1` (stereo in doubt) [Example 5, 6-[(3R,4R,5S)-4-(4-Methoxyphenyl)-5-prop-2-ynyloxypiperidin-3-yloxymethyl]-4-(3-methoxy-propyl)-3,4-dihydro-2H-benzo[1,4]oxazine], for which the IC50 was in the range of 3.8 to 814 nM.

For `COCCCN1CCOc2ccc(CO[C@H]3CNC[C@@H](OCC#N)[C@@H]3c3ccc(OC)cc3)cc21` [Example 1, {(3S,4R,5R)-4-(4-Methoxyphenyl)-5-[4-(3-methoxypropyl)-3,4-dihydro-2H-benzo[1,4]oxazin-6-ylmethoxy]piperidin-3-yloxyl}acetonitrile], the IC50 lay in the range of 3.8 to 814 nM.

Regarding `COCCCN1CCOc2ccc(CO[C@H]3CNC[C@@H](OC[C@H](O)COC)[C@@H]3c3ccc(OC)cc3)cc21` [Example 2, (R)-1-Methoxy-3-{(3S,4R,5R)-4-(4-methoxyphenyl)-5-[4-(3-methoxypropyl)-3,4-dihydro-2H-benzo[1,4]oxazin-6-ylmethoxy]piperidin-3-yloxy}propan-2-ol], the IC50 lay within 3.8 to 814 nM.

`COCCCN1CCOc2ccc(CO[C@H]3CNC[C@@H](OCC(C)(C)OC)[C@@H]3c3ccc(OC)cc3)cc21` [Example 8, 6-[(3R,4R,5S)-5-(2-Methoxy-2-methylpropoxy)-4-(4-methoxyphenyl)piperidin-3-yloxymethyl]-4-(3-methoxypropyl)-3,4-dihydro-2H-benzo[1,4]oxazine]: the IC50 fell in the range of 3.8 to 814 nM.

`COCCCN1CCOc2ccc(CO[C@H]3CNC[C@@H](OCC(=O)N4[C@H](C)COC[C@@H]4C)[C@@H]3c3ccc(OC)cc3)cc21` [Example 61, 1-((3S,5R)-3,5-Dimethylmorpholin-4-yl)-2-{(3S,4R,5R)-4-(4-methoxyphenyl)-5-[4-(3-methoxypropyl)-3,4-dihydro-2H-benzo[1,4]oxazin-6-ylmethoxy]piperidin-3-yloxy}-ethanone]: the IC50 lay in the range of 3.8 to 814 nM.

For the compound `COCCCN1CCOc2ccc(CO[C@H]3CNC[C@@H](OCCN4[C@H](C)COC[C@@H]4C)[C@@H]3c3ccc(OC)cc3)cc21` [Example 68, 6-[(3R,4R,5S)-5-[2-((3R,5S)-3,5-Dimethylmorpholin-4-yl)ethoxy]-4-(4-methoxy-phenyl)piperidin-3-yloxymethyl]-4-(3-methoxypropyl)-3,4-dihydro-2H-benzo[1,4]oxazine], the IC50 was 3.8 to 814 nM.

Turning to `COCCCN1CCOc2ccc(CO[C@H]3CNC[C@@H](OC[C@H](O)COC)[C@@H]3c3ccc(SCCOC)cc3)cc21` [Example 70, (R)-1-Methoxy-3-{(3S,4R,5R)-4-[4-(2-methoxyethylsulfanyl)phenyl]-5-[4-(3-methoxy-propyl)-3,4-dihydro-2H-benzo[1,4]oxazin-6-ylmethoxy]piperidin-3-yloxy}propan-2-ol], the IC50 fell in the range of 3.8 to 814 nM.

In the case of `COCCCSc1ccc([C@@H]2[C@@H](OCc3ccc4c(c3)N(CCCOC)CCO4)CNC[C@H]2OC[C@H](O)COC)cc1` [Example 71, (R)-1-Methoxy-3-{(3S,4R,5R)-5-[4-(3-methoxypropyl)-3,4-dihydro-2H-benzo[1,4]oxazin-6-ylmethoxy]-4-[4-(3-methoxypropylsulfanyl)phenyl]piperidin-3-yloxy}propan-2-ol], the IC50 lay within 3.8 to 814 nM.

In the case of `COCCCN1CCOc2ccc(CO[C@H]3CNC[C@@H](OC[C@H](O)COC)[C@@H]3c3ccc(C#N)cc3)cc21` [Example 73, 4-{(3S,4R,5R)-3((R)-2-Hydroxy-3-methoxypropoxy)-5-[4-(3-methoxypropyl)-3,4-dihydro-2H-benzo[1,4]oxazin-6-ylmethoxy]piperidin-4-yl}benzonitrile], the IC50 lay within 3.8 to 814 nM.

Consider `COCCCN1CCOc2ccc(CO[C@H]3CNC[C@@H](OC[C@@H](O)COC)[C@@H]3c3ccc(C#N)cc3)cc21` [Example 74, 4-{(3S,4R,5R)-3((S)-2-Hydroxy-3-methoxypropoxy)-5-[4-(3-methoxypropyl)-3,4-dihydro-2H-benzo[1,4]oxazin-6-ylmethoxy]piperidin-4-yl}-benzonitrile], for which the IC50 is 3.8 to 814 nM.

Take `COCCCN1CCOc2ccc(CO[C@H]3CNC[C@@H](CNC(C)C)[C@@H]3c3ccc(OC)cc3)cc21` [Example 87, Isopropyl-{(3S,4R,5R)-4-(4-methoxyphenyl)-5-[4-(3-methoxypropyl)-3,4-dihydro-2H-benzo[1,4]oxazin-6-ylmethoxy]piperidin-3-ylmethyl}amine]: the IC50 lay within 3.8 to 814 nM.

Take `COCCCN1CCOc2ccc(CO[C@H]3CNC[C@@H](CNC(C)=O)[C@@H]3c3ccc(OC)cc3)cc21` [Example 91, N-{(3S,4R,5R)-4-(4-Methoxyphenyl)-5-[4-(3-methoxypropyl)-3,4-dihydro-2H-benzo[1,4]oxazin-6-ylmethoxy]piperidin-3-ylmethyl}acetamide]: the IC50 was 3.8 to 814 nM.
